The experiment relates to CEM cells HIV-1 protection, formazan growth assay. In words: NCI AIDS Antiviral Assay. The following applies: for IC50: measured here: growth of uninfected CEM cells. Put shortly: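 Steps: treat uninfected and HIV-1-infected human CEM cells at five drug levels; quantify growth by soluble formazan; retest any compound reaching 50% protection; classify actives from the retest.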

The source made the active and inactive calls.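 Rule for the calls: active = compounds giving half or more protection of infected cells from virus-caused growth loss, again on retest; inactive = the rest.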

Consider `COC(=O)c1c(C)cccc1C1CN=NC12Cc1cccc(C)c1C2=O` (stereo not drawn), for which the EC50 is more than 126 µM and the half-inhibitory concentration (IC50) is 81.3 µM.
Taken in the same sequence, the figures for `O=C1C(Cl)N(c2ccccc2Cl)C1c1c[nH]c2ccccc12` (stereo not drawn) were more than 398 µM and more than 200 µM.
On to `Cc1ccc(/C(O)=C/C(=O)C(=O)NC23CC4CC(CC(C4)C2)C3)cc1`, for which the EC50 was more than 200 µM and the IC50 worked out at 77.6 µM.
Taken in the same sequence, the figures for `CCCCCCCCCCn1nnc2c(=O)[nH]c(N)nc21` were more than 200 µM and 52.5 µM.
Regarding `CCOC(=O)C(NC(=O)c1ccccc1)(N1CCN(c2cc3c(cc2F)c(=O)c(C(=O)O)cn3CC)CC1)C(F)(F)F` (stereo not drawn), the EC50 was more than 200 µM and the IC50 amounted to 34.7 µM.
Turning to `CC(=O)NC(Cc1cnc[nH]1)C(=O)N1CCCC1C(N)=O` (stereo not drawn), the EC50 was more than 200 µM and the IC50 is more than 200 µM.
Take `Cc1cn(C2CC(N=[N+]=[N-])C(COC(=O)CCCCCCCCCCCOc3ccccc3)O2)c(=O)[nH]c1=O` (stereo not drawn): the EC50 is 0.0501 µM and the 50% inhibitory concentration (IC50) was determined as 102 µM.
Turning to `O=C(O)C(=C\c1ccc2c(c1)OCO2)/C(=C/c1ccc2c(c1)OCO2)C(=O)O`, the result was inactive.
As for `COC(=O)C1=C(C)NC2=C(C(=O)CCC2)C1CCSC` (stereo not drawn), the outcome was inactive.
Regarding `COc1ccc(OC2OC(COC(c3ccccc3)(c3ccc(OC)cc3)c3ccc(OC)cc3)C(O)C(O)C2O)cc1` (stereo not drawn), the EC50 was more than 200 µM and the IC50 turned out to be 8.91 µM.
As for `N#C/C(=C1\SC(N=Nc2ccccc2)C(=O)N1c1ccccc1)c1nc2ccccc2[nH]1` (stereo not drawn), the EC50 is more than 6.03 µM and the IC50 was more than 6.03 µM.
`CCOC(=O)C#CC(=O)OCC`: the EC50 is more than 200 µM and the IC50 turned out to be 15.1 µM.
Taken in the same sequence, the figures for `CSCCOC(=O)c1cc(NC(=S)c2ccoc2C)ccc1Cl` were 0.0182 µM and 19.5 µM.
`O=C(Nc1ccc(F)cc1)N(C1CCCCC1)C1CCCCC1`: the EC50 was more than 200 µM and the half-maximal inhibitory concentration (IC50) was found to be 81.3 µM.
For `CCOP(=O)(CC(C)P(=O)(OCC)OCC)OCC.C[CH2][Sn]([Cl])([Cl])[CH2]C` (stereo not drawn), the EC50 is more than 447 µM and the half-maximal inhibitory concentration (IC50) came out at 1.7 µM.
With `c1csc([As](O[As](c2cccs2)c2cccs2)c2cccs2)c1`, the EC50 was more than 0.2 µM and the IC50 came out at 0.102 µM.
For the compound `c1cc2c(c(CC3CO3)c1CC1CO1)OCCOCCOCCOCCO2` (stereo not drawn), the EC50 is more than 661 µM and the IC50 stood at 1.38 µM.
Taken in the same sequence, the figures for `CC(C)(C)N1OC2(CCCCC2)n2c(=O)c3ccccc3c(=O)n2C1c1ccccc1` (stereo not drawn) were more than 589 µM and more than 589 µM.
Take `CC1=C2CC/C(C)=C/CCC3(C)OC3CC/C(C)=C/C2OC1=O` (stereo not drawn): the EC50 was more than 200 µM and the concentration for half-maximal inhibition (IC50) was more than 200 µM.
Regarding `CC(=O)Nc1nnc(SSc2nnc(NC(C)=O)s2)s1`, the concentration giving a half-maximal response (EC50) was 36.3 µM and the IC50 stood at 186 µM.
`Cc1ccc([C@H]2CC(=O)C[C@H](c3ccc(C)cc3)C23C(=O)c2ccccc2C3=O)cc1`: the EC50 is more than 200 µM and the IC50 was more than 200 µM.
With `Cc1ccc(S(=O)(=O)Nn2c(O)c(C#N)c(-c3ccc([N+](=O)[O-])cc3)c(C#N)c2=O)cc1`, the EC50 was more than 200 µM and the IC50 was more than 200 µM.
With `CCOC(=O)NCC(=O)NCC(=O)NCC(N)=O`, the EC50 is more than 200 µM and the IC50 is more than 200 µM.
Take `COc1ccc(NC(=O)C/C(C)=N\N=C(N)N)c([N+](=O)[O-])c1`: the EC50 was more than 115 µM and the IC50 was more than 115 µM.
Consider `CC(C)C1CC[C@H](C)C[C@@H]1OC(=O)C(C(=O)O[C@H]1C[C@@H](C)CCC1C(C)C)C(O)[C@@H]1OC(C)(C)O[C@H]1C1COC(C)(C)O1` (stereo partly drawn), for which the EC50 was more than 200 µM and the half-inhibitory concentration (IC50) came to 7.41 µM.
With `O=C1C2C(C(=O)N1c1ccccc1)C1(c3ccccc3)OC2(c2ccccc2)c2ccccc21` (stereo not drawn), the result was inactive.
For the compound `CC(C)S(=O)(=O)n1c(N)nc2ccc(/C(=N/O)c3ccccc3)cc21`, the EC50 was 5.01 µM and the 50% inhibitory concentration (IC50) came to 9.77 µM.
Taken in the same sequence, the figures for `CC(=O)c1ccc(NC(=O)C(=O)C(C(=O)c2ccc(Cl)c(Cl)c2)C2OC(=O)c3ccccc32)cc1` (stereo not drawn) were more than 87.1 µM and 12.6 µM.
Turning to `O=C(c1cc2ccccc2[nH]1)C(O)(c1cc2ccccc2[nH]1)c1cc2ccccc2[nH]1`, the EC50 is more than 9.33 µM and the IC50 was more than 9.33 µM.
In the case of `COC(=O)C1=Nc2c(C)nn(-c3ccccc3)c2N=C(c2ccc(C)cc2)C1`, the EC50 was more than 200 µM and the half-inhibitory concentration (IC50) is more than 200 µM.
Regarding `Cn1cc(C(=O)c2ccccc2)c2ccccc2c1=O`, the result was inactive.
With `Cc1cc(N(CCC#N)CCC#N)ccc1/C=C1\SC(=S)NC1=O`, the EC50 was more than 200 µM and the IC50 came to 32.4 µM.
Taken in the same sequence, the figures for `CN1CC(=O)NC2C(=CN(Cc3ccccc3)c3ccccc32)C1=O` (stereo not drawn) were more than 200 µM and more than 200 µM.
On to `Cn1c(=O)oc2cc(C(O)CN3CCN(Cc4ccc5c(c4)OCO5)CC3)ccc21` (stereo not drawn), for which the EC50 is more than 200 µM and the half-inhibitory concentration (IC50) was more than 200 µM.
In the case of `O=C/C(=C1/C=Cc2cc([N+](=O)[O-])ccc2S1)c1ccccc1`, the EC50 was more than 200 µM and the concentration for half-maximal inhibition (IC50) is more than 200 µM.
For the compound `CCC(C)(C)c1ccc(OP(=S)(S)Oc2ccc(C(C)(C)CC)cc2)cc1`, the EC50 was more than 200 µM and the IC50 was found to be 37.2 µM.
Take `Cc1cc(N(CCC#N)CCC#N)ccc1/C=C1N=C(/C=C\c2ccccc2)N(NC(=O)CC(=O)Nc2ccccc2Cl)C\1=O`: the result was inactive.
`O=Nc1sc(=N\O)/c(=N/O)sc1NO`: the EC50 is more than 200 µM and the IC50 stood at 32.4 µM.
For `CN1CCN(c2ccc(-n3cc(C(=O)O)c(=O)c4cc(F)c(N5CCN(C)CC5)cc43)nc2)CC1`, in that order: more than 200 µM and 115 µM.
For the compound `Cc1ccc(-n2cc(-c3ccc(Cl)cc3)c3c(NNC(=S)NCc4ccccc4)ncnc32)cc1`, the EC50 was more than 200 µM and the IC50 worked out at 7.59 µM.
Take `C#CCN1C(=O)CN2C(Cl)(Cl)C2(c2ccccc2)c2cc(Cl)ccc21` (stereo not drawn): the EC50 was more than 200 µM and the concentration for half-maximal inhibition (IC50) came to 22.9 µM.
In the case of `CN(C)C(=O)OCOP(=O)(OCOC(=O)N(C)C)OCC1CCC(n2ccc(=O)[nH]c2=O)O1` (stereo not drawn), the EC50 is more than 200 µM and the concentration for half-maximal inhibition (IC50) was 93.3 µM.
Take `O=C(O)C(SSC(C(=O)O)(c1ccccc1)c1ccccc1)(c1ccccc1)c1ccccc1`: the EC50 was more than 200 µM and the 50% inhibitory concentration (IC50) is 89.1 µM.
For `COC(=O)C(NC(=O)CNC(=O)CSc1nnc(COc2ccc(Cl)cc2)n1-c1ccccc1)C(C)C` (stereo not drawn), in that order: more than 200 µM and 3.63 µM.
Take `N#CCCN(CCC#N)c1ccc(/C=C2\N=C(c3ccccc3)N(c3ccc(F)cc3)C2=O)cc1`: the EC50 was more than 200 µM and the IC50 was more than 200 µM.
With `O=C1Cc2c([nH]c3c(Br)cccc23)-c2ccccc2N1`, the EC50 was more than 200 µM and the IC50 worked out at 29.5 µM.
For `COc1cc(/C=C/C(=O)c2sc(NNC(C)=O)nc2C)ccc1O`, the EC50 is more than 20.9 µM and the IC50 is more than 20.9 µM.
In the case of `CC1=C(O[Si](C(C)C)(C(C)C)C(C)C)C2CC1[C@@H]1C(=O)N(c3ccccc3)C(=O)[C@H]21` (stereo partly drawn), the EC50 is more than 6.46 µM and the IC50 is more than 6.46 µM.
With `Cc1cn(C2CC(Br)C(COC(c3ccccc3)(c3ccccc3)c3ccccc3)O2)c(=O)[nH]c1=O` (stereo not drawn), the EC50 was more than 200 µM and the IC50 stood at 13.8 µM.

Broadly, the EC50 is the concentration needed to bring the measured effect to its halfway point. A word on the IC50: it is the concentration that gives 50% inhibition.

(Values after PubChem BioAssay AID179 (DTP/NCI, 2004).)
